Each structure is given as a SMILES string.

For the compound `Oc1ccc(Nc2ccc3ccccc3c2)cc1`, the melting point – broadly, the temperature, or range, at which the solid turns liquid – stood at 140 °C. Take `c1ccc2c(c1)-c1cc3ccccc3c3cc4ccccc4c-2c13`: the melting point came out at 232 °C.

As for `Nc1cccc2nsnc12`, the melting point came out at 68 °C.

For the compound `CC[C@](C)(N)C(=O)O` (racemic), the melting point was 316 °C. `COc1ccc(N)c([N+](=O)[O-])c1`: the melting point worked out at 124 °C and the ready biodegradability result is reported as “not readily biodegradable”. `O=C1CCC(c2ccccc2)CC1` displayed a melting point of 79.5 °C. On the same count and under the same terms, next, `O=c1[nH]cc(C(F)(F)F)c(=O)[nH]1`: 316 °C; `Cc1c(Cl)cc(-c2ccc(O)nn2)cc1Cl`: 252 °C. Still for that read-out and setting: next, `CCCCCCCCN(C)CCCCCCCC`: -30.1 °C.

In turn, `CC(C)=NOCCOC(=O)[C@@H](C)Oc1ccc(Oc2cnc3cc(Cl)ccc3n2)cc1` showed a log10 vapour pressure (mmHg) of -11.5 and a melting point of 66.3 °C.

`CC(C)(C)C`: the boiling point – broadly, the temperature of boiling at a given pressure – was determined as 9.5 °C; the log10 vapour pressure (mmHg) worked out at 3.11; the melting point was -16.4 °C.

Take `O=c1c2ccccc2nc2n1CCc1c-2[nH]c2ccccc12`: the melting point worked out at 260 °C. Consider `C1CCCC1`, for which the boiling point was determined as 49.3 °C, the log10 Henry constant (atm·m³/mol) is -0.818, the log10 biodegradation half-life (days) is 1.7 and the log10 vapour pressure (mmHg) turned out to be 2.5. This compound also had a melting point of -93.8 °C.

`CCC(C)(C)c1cc(O)c(C(C)(C)CC)cc1O` registered a melting point of 180 °C. `CCC(=O)Cc1ccccc1` showed a boiling point of 230 °C.

In the case of `Oc1ccc2c(c1)CCCC2`, the boiling point was found to be 276 °C and the melting point was 57 °C.

In turn, `CCCCC(CC)COC(=O)CC(C(=O)OCC(CC)CCCC)S(=O)(=O)[O-].[Na+]` (stereo unspecified) yielded a melting point of 176 °C. As for `CC1=CC=CC1`, the boiling point amounted to 72.8 °C and the log10 vapour pressure (mmHg) was found to be 2.09. Regarding `O=C(O)c1c(F)cccc1Cl`, the melting point worked out at 160 °C. Compound `CC(S)C(=O)NCC(=O)O` (stereo unspecified) registered a melting point of 96 °C. Same read-out and setting: next, `CCCN1C[C@H](CSC)C[C@@H]2c3cccc4[nH]cc(c34)C[C@H]21`: 208 °C. Compound `CNC.O=C(O)COc1ccc(Cl)cc1Cl` showed a log10 vapour pressure (mmHg) of -9 and a melting point of 86 °C. `CCCCCCCCCCCCCC(=O)OC` registered a boiling point of 295 °C, a log10 vapour pressure (mmHg) of -3.31 and a melting point of 19 °C. As to `CCCCN(C)C(=O)Nc1ccc(Cl)c(Cl)c1`, the log10 Koc (L/kg) is 3.4, the melting point turned out to be 102 °C and the ready biodegradability result was “not readily biodegradable”. Take `Cl[C@H]1[C@H](Cl)[C@@H](Cl)[C@H](Cl)[C@@H](Cl)[C@H]1Cl` (racemic): the ready biodegradability entry is “not readily biodegradable”.

Compound `CC(=O)c1ccc(C(F)(F)F)cc1` came in with a melting point of 31 °C. Still for that read-out and setting: next, `O=C1c2ccccc2C(=O)c2cc(Br)ccc21`: 206 °C.

`C=CC(Cl)Cl` yielded a boiling point of 84.4 °C and a log10 vapour pressure (mmHg) of 1.85. Turning to `COc1ccc([N+](=O)[O-])c(N)c1`, the melting point was 131 °C.

On to `COc1c(F)c(F)c(F)c(F)c1F`, for which the boiling point amounted to 138 °C and the melting point is -37 °C. Compound `c1ccc2c(-c3cccc4ccccc34)cccc2c1` had a melting point of 160 °C. As for `CCCCCCCCCCCCCCC=O`, the melting point came out at 24.5 °C.

Compound `C=CCC(C(=O)NC(N)=O)C(C)C` (stereo unspecified) displayed a melting point of 194 °C. For `O=C(Cl)C(F)(F)F`, the boiling point is -27 °C, the log10 Henry constant (atm·m³/mol) was -3.35 and the melting point amounted to 146 °C. In turn, `c1ccc2[nH]ncc2c1` came in with a boiling point of 269 °C and a melting point of 148 °C. Regarding `COc1cc2c(cc1OC)C1CC(=O)C(CC(C)C)CN1CC2` (stereo unspecified), the melting point came to 128 °C.

For `CCCCN(CCCC)CCCN`, the boiling point amounted to 205 °C. Still for that read-out and setting: in the case of `OCCCC(F)(F)F` it was 125 °C.

For `CC(Cc1ccc(O)c(O)c1)C(C)Cc1ccc(O)c(O)c1` (stereo unspecified), the melting point was found to be 186 °C.

As for `O=C(O)Cc1ccccc1O`, the boiling point amounted to 240 °C and the melting point amounted to 148 °C. The compound `O=c1[nH]ncc2ccccc12` showed a melting point of 188 °C. Still for that read-out and setting: in the case of `O=C(C=Cc1ccccc1)c1ccccc1O` it was 90 °C.

On to `O=C=Nc1ccccc1Cl`, for which the boiling point was 200 °C and the melting point turned out to be 30.5 °C. For the compound `O=Cc1cccc2ccccc12`, the boiling point turned out to be 292 °C and the melting point turned out to be 33.5 °C. `CCCCCCCC(=O)OCCC`: the boiling point was 226 °C and the melting point is -46.2 °C. Compound `c1ccccc1` had a boiling point of 80 °C, a log10 Henry constant (atm·m³/mol) of -2.26, a log10 Koa of 2.78 and a log10 Koc (L/kg) of 1.75. Besides, the log10 biodegradation half-life (days) is 0.778, the log10 vapour pressure (mmHg) stood at 1.98 and the ready biodegradability result is “readily biodegradable”.

`Clc1cccc2cccnc12` came in with a boiling point of 288 °C and a melting point of -20 °C. The compound `Cc1nccc2c1[nH]c1ccccc12` had a melting point of 236 °C. Still for that read-out and setting: next, `CC(C)(C)c1cc(C(=O)O)cc(C(C)(C)C)c1O`: 208 °C. Regarding `CC(=O)Br`, the boiling point was determined as 76 °C, the log10 vapour pressure (mmHg) turned out to be 2.08 and the melting point is -96 °C. Regarding `CCCCC(Cl)CCl` (stereo unspecified), the boiling point came out at 173 °C.

Take `CC(C)(N=C=O)c1ccc(C(C)(C)N=C=O)cc1`: the log10 vapour pressure (mmHg) was -3.12. `Cc1cccc2c1CC=C2` gave a boiling point of 209 °C.

For the origin of these results see the OPERA property sets (Mansouri et al. 2018).
